Patent publication US8524481B2, “Hide processing methods and compositions” (priority 2010, dated 2013)
Counter-ions that a name gives are not always drawn. Like-named read-outs stand apart in the source and are kept apart here. Square brackets hold non-standard residues; d marks the D form. Peptide text beside a SMILES is read from it. * marks the point of attachment. Sta = CC(C)C[C@H](N)[C@@H](O)CC(=O)O; Isovaleryl = CC(C)CC(=O)*

Assays:
[1] = system: protease from strain SRC002 (MTCC 5564); assay: Effect of inhibitors, metals and chemicals on protease activity; format: biochemical, Pseudomonas aeruginosa; conditions: for effect on protease activity: EGTA 10 mM, 1,10 Phenanthrolin 2 mM, Phosphoramidone 500 μg/ml, Antipain 20 μM, Bestatin 50 μg/ml, Chymostatin 20 μM, E-64 2 μM, Pepstatin 1 μM, Ebelacetone-B 1 μM
[2] = system: Strain A/SRC002 (MTCC 5564); assay: Antibiotic sensitivity by disk diffusion method, Strain A; format: cell-based, Pseudomonas aeruginosa; conditions: Himedia antibiotic discs, Mueller Hinton Agar, 37° C. overnight
Description: (§1) The sensitivity of the strains against different antibiotics was determined by disk diffusion method using commercially available (Himedia) antibiotic discs. The representative of each group of antibiotic had been tested. The antibiotics used were Ampicillin (A10), Cephadroxil (Cq30), Chloramphenicol (C30), Cloxacillin (Cx30), Cephotaxime (Ce30), Ceftazidime (Ca30), Ciprofloxacin (Cf5), Doxycycline Hydrochloride (Do30), Gentamicin (G10), Metronidazole (Mt4), Neomycin (N30), Norfloxacin (Nx10), Polymyxin B (Pb100), Rifampicin (R15), Roxithromycin (Ro30), Tetracycline (T30), Trimethoprin (Tr30), Vancomycin (Va30). The concentrations of the antibiotics in microgram per disc were mentioned in parenthesis indicated above except for Polymyxin B where it is 100 units. Mueller Hinton Agar medium (Himedia-M173) was used to grow each of the microorganisms for antibiotic sensitivity test. The log phase culture of each isolate was diluted 100 times and poured on Mueller Hinton Agar (MHA) plates. It was swirled uniformly to distribute the culture throughout the plate. After waiting for 30 mins, the cultures were carefully pipetted out from the plates and the plates were allowed to dry. Then the antibiotic disks were placed onto the MHA surface using the dispenser provided with the antibiotic discs. The plates were incubated at 37° C. for overnight. The zones of inhibition were measured. The results were evaluated using National Committee for Clinical Laboratory Standard's (NCCLS) chart provided with the antibiotic discs by Himedia. The assay was repeated three times for each organism.

Strain B/GZN (MTCC 5566) = assay: Antibiotic sensitivity by disk diffusion method, Strain B; format: cell-based, Pseudomonas aeruginosa; conditions: Himedia antibiotic discs, Mueller Hinton Agar, 37° C. overnight
Description: as §1

[3] = concentration not given, crude enzyme for the partial inhibitors

| Compound | effect on enzyme activity [1, 3] | antibiotic sensitivity (zones of inhibition evaluated by NCCLS chart) [2] | antibiotic sensitivity (zones of inhibition evaluated by NCCLS chart) (Strain B/GZN (MTCC 5566)) | other results |
| --- | --- | --- | --- | --- |
| CC(C)C[C@H](NC(=O)[C@@H](O)[C@H](N)Cc1ccccc1)C(=O)O [Bestatin] | no inhibitory effect |  |  | effect on protease activity [1]: almost no effect |
| CC1=C(C(=O)O)N2C(=O)[C@@H](NC(=O)[C@H](N)c3ccc(O)cc3)[C@H]2SC1 [Cephadroxil] |  | resistant |  |  |
| CN[C@H](CC(C)C)C(=O)N[C@H]1C(=O)N[C@@H](CC(N)=O)C(=O)N[C@H]2C(=O)N[C@H]3C(=O)N[C@H](C(=O)N[C@H](C(=O)O)c4cc(O)cc(O)c4-c4cc3ccc4O)[C@H](O)c3ccc(c(Cl)c3)Oc3cc2cc(c3O[C@@H]2O[C@H](CO)[C@@H](O)[C@H](O)[C@H]2O[C@H]2C[C@](C)(N)[C@H](O)[C@H](C)O2)Oc2ccc(cc2Cl)[C@H]1O [Vancomycin] |  | resistant | resistant |  |
| CC(C)C[C@H](NP(=O)(O)O[C@@H]1O[C@@H](C)[C@H](O)[C@@H](O)[C@H]1O)C(=O)N[C@@H](Cc1c[nH]c2ccccc12)C(=O)O [Phosphoramidone] | completely inhibited |  |  | effect on protease activity [1]: completely inhibited |
| [Cr] [Cr] |  |  |  | enzyme activity retained in the presence of metal [1]: up to 90% |
| [Cd] [Cd] |  |  |  | enzyme activity retained in the presence of metal ([1]; concentration not given): 34% |
| c1cnc2c(c1)ccc1cccnc12 [1,10 Phenanthrolin] | completely inhibited |  |  | effect on protease activity [1]: completely inhibited |
| [Ni] [Ni] |  |  |  | enzyme activity retained in the presence of metal ([1]; concentration not given): 70% |
| OO [hydrogen peroxide] | partially inhibited |  |  |  |
| CCn1cc(C(=O)O)c(=O)c2cc(F)c(N3CCNCC3)cc21 [Norfloxacine, Norfloxacin] |  | sensitive | resistant |  |
| OCCS [beta-merceptoethanol] | partially inhibited |  |  |  |
| C[C@H]1c2cccc(O)c2C(=O)C2=C(O)[C@]3(O)C(=O)C(C(N)=O)=C(O)[C@@H](N(C)C)[C@@H]3[C@@H](O)[C@@H]21 [Doxycycline hydrochloride, Doxycycline Hydrochloride] |  | resistant | resistant |  |
| COc1cc(Cc2cnc(N)nc2N)cc(OC)c1OC [Trimethoprim] |  | resistant | intermediate response |  |
| O=C(O)CN(CCN(CC(=O)O)CC(=O)O)CC(=O)O [EDTA] |  |  |  | effect on enzyme activity [1]: inactivated |
| [Cu] [Cu] |  |  |  | enzyme activity retained in the presence of metal ([1]; concentration not given): 50% |
| CC(C)C[C@H](NC(=O)[C@H]1O[C@@H]1C(=O)O)C(=O)NCCCCN=C(N)N [Strain E-64, E-64] | no inhibitory effect |  |  | effect on protease activity [1]: almost no effect |
| CC(C)C[C@H](NC(=O)[C@@H](NC(=O)N[C@@H](Cc1ccccc1)C(=O)O)[C@@H]1CCN=C(N)N1)C(=O)N[C@H](C=O)Cc1ccccc1 [Chymostatin] | no inhibitory effect |  |  | effect on protease activity [1]: almost no effect |
| O=C(O)CN(CCOCCOCCN(CC(=O)O)CC(=O)O)CC(=O)O [EGTA] | completely inhibited |  |  | effect on protease activity [1]: completely inhibited |
| CO/N=C(\C(=O)N[C@@H]1C(=O)N2C(C(=O)O)=C(COC(C)=O)CS[C@H]12)c1csc(N)n1 [Cephotaxime] |  | resistant | intermediate response |  |

| Compound | effect on enzyme activity [1, 3] | antibiotic sensitivity (zones of inhibition evaluated by NCCLS chart) [2] | antibiotic sensitivity (zones of inhibition evaluated by NCCLS chart) (Strain B/GZN (MTCC 5566)) | other results |
| --- | --- | --- | --- | --- |
| CC[C@@H](C)[C@@H](O)[C@H](C)C(=O)[C@H](C)/C=C(\C)C[C@H](C)[C@@H]1OC(=O)[C@H]1CC [Ebelacetone-B] | no inhibitory effect |  |  | effect on protease activity [1]: almost no effect |
| [Hg] [Hg] | complete inhibition |  |  |  |
| O=C(O)c1cn(C2CC2)c2cc(N3CCNCC3)c(F)cc2c1=O [Ciprofloxacin] |  | sensitive | resistant |  |
| CC(C)CC(=O)N[C@H](C(=O)N[C@H](C(=O)N[C@@H](CC(C)C)[C@@H](O)CC(=O)N[C@@H](C)C(=O)N[C@@H](CC(C)C)[C@@H](O)CC(=O)O)C(C)C)C(C)C [Pepstatin] (Isovaleryl-VV[Sta]A[Sta]-OH) | no inhibitory effect |  |  | effect on protease activity [1]: almost no effect |
| O=C(N[C@H](CO)[C@H](O)c1ccc([N+](=O)[O-])cc1)C(Cl)Cl [Cloramphenicol, Chloramphenicol] |  | resistant | intermediate response |  |
| NC[C@@H]1O[C@H](O[C@H]2[C@@H](O)[C@H](O[C@@H]3[C@@H](O)[C@H](N)C[C@H](N)[C@H]3O[C@H]3O[C@H](CN)[C@@H](O)[C@H](O)[C@H]3N)O[C@@H]2CO)[C@H](N)[C@@H](O)[C@@H]1O [Neomycine, Neomycin] |  | sensitive | intermediate response |  |
| Gentamicin [Gentamycine] |  | resistant | sensitive |  |
| Cc1ncc([N+](=O)[O-])n1CCO [Metronidazole] |  | resistant |  |  |
| CN(C)[C@@H]1C(=O)C(C(N)=O)=C(O)[C@@]2(O)C(=O)C3=C(O)c4c(O)cccc4[C@@](C)(O)[C@H]3C[C@@H]12 [Tetracyclin, Tetracycline] |  | resistant | resistant |  |
| Triton X 100 | partially inhibited |  |  |  |
| [Pb] [Pb] |  |  |  | enzyme activity retained in the presence of metal ([1]; concentration not given): 50% |
| CC(C)(O/N=C(\C(=O)N[C@@H]1C(=O)N2C(C(=O)[O-])=C(C[n+]3ccccc3)CS[C@H]12)c1csc(N)n1)C(=O)O [Ceftazidime] |  | resistant | intermediate response |  |
| [Ag] [Ag] |  |  |  | enzyme activity retained in the presence of metal ([1]; concentration not given): 76% |
| [Zn] [Zn] |  |  |  | enzyme activity retained in the presence of metal ([1]; concentration not given): 34% |
| Polymyxin B [PolymyxinB] |  | resistant | resistant |  |
| [Co] [Co] |  |  |  | enzyme activity retained in the presence of metal ([1]; concentration not given): 82% |
| Cc1onc(-c2ccccc2Cl)c1C(=O)N[C@@H]1C(=O)N2[C@@H]1SC(C)(C)[C@@H]2C(=O)O [Cloxacillin] |  | resistant |  |  |
| [Al] [Al] |  |  |  | enzyme activity retained in the presence of metal ([1]; concentration not given): 70% |
| CC1(C)S[C@@H]2[C@H](NC(=O)[C@H](N)c3ccccc3)C(=O)N2[C@H]1C(=O)O [Ampicillin] |  | resistant | resistant |  |
